Data: the supplement of paper PMC12317010
Counter-ions that a name gives are not always drawn.

Test: collision cross section in nitrogen (drift tube, single-field); higher = larger gas-phase ion size
[1] = ion type: [M+], ion source: APCI, ion mode: Positive
[2] = ion type: [M-H], ion source: ESI, ion mode: Negative
[3] = ion type: [M+Na], ion source: ESI, ion mode: Positive
[4] = ion type: [M+H], ion source: APCI, ion mode: Positive
[5] = ion type: [M+H], ion source: ESI, ion mode: Positive
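Further: chemical standards at 10 µM analysed by drift tube IMS-QTOF MS in about 3.95 torr nitrogen, mean of duplicate injections differing ≤1%, mass error below 10 ppm.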

collision cross section in nitrogen [2] [Å²] | collision cross section in nitrogen [3] [Å²] | collision cross section in nitrogen [4] [Å²] | collision cross section in nitrogen [5] [Å²] | Structure (SMILES) | further results
– | 152.3 | – | – | COc1ccccc1NC(=O)CC(C)=O [N-(2-Methoxyphenyl)-3-oxobutanamide] | –
– | 151.3 | – | – | CC(=O)OCCOCCOCCOC(C)=O [Triethylene glycol diacetate] | –
170.1 | 175.7 | – | – | CCCCCCCCCCCC(=O)N(C)CC(=O)O [N-Dodecanoyl-N-methylglycine] | –
160.5 | 175.3 | 159.2 | 159 | CCc1c(C(=O)O)c(=O)cnn1-c1ccc(Cl)cc1 [Clofencet-potassium] | –
140.9 | – | 155.3 | 146.4 | CCOC(=O)c1sc(N)nc1C(F)(F)F [Ethyl 2-amino-4-(trifluoromethyl)-1,3-thiazole-5-carboxylate] | –
– | 177.6 | – | – | CCCc1c(OCCCCc2nnn[nH]2)ccc(C(C)=O)c1O [Tomelukast] | –
– | 225.2 | – | – | CCCCCCC(CCCCCCCCCCC(=O)OCC(COC(C)=O)OC(C)=O)OC(C)=O (configuration not stated) [Grinstad Soft-N-Safe] | –
– | 160.2 | 143.5 | 143.6 | CCN(CC)C(=O)c1cccc(C)c1 [DEET] | –
151.3 | – | – | – | CCCCC(CC)C(=O)OC(C)C (configuration not stated) [Propan-2-yl 2-ethylhexanoate] | –
314.1 | 318.1 | – | – | OC[C@H]1O[C@@H]2O[C@H]3[C@H](O)[C@@H](O)[C@@H](O[C@H]4[C@H](O)[C@@H](O)[C@@H](O[C@H]5[C@H](O)[C@@H](O)[C@@H](O[C@H]6[C@H](O)[C@@H](O)[C@@H](O[C@H]7[C@H](O)[C@@H](O)[C@@H](O[C@H]8[C@H](O)[C@@H](O)[C@@H](O[C@H]9[C@H](O)[C@@H](O)[C@@H](O[C@H]1[C@H](O)[C@H]2O)O[C@@H]9CO)O[C@@H]8CO)O[C@@H]7CO)O[C@@H]6CO)O[C@@H]5CO)O[C@@H]4CO)O[C@@H]3CO [gamma-Cyclodextrin] | –
– | – | 126.1 | 126.5 | Cc1ncsc1CCO [Thiamine thiozole] | –
– | 202.7 | – | – | CCCCOC(=O)CC(O)(CC(=O)OCCCC)C(=O)OCCCC [Tributyl citrate] | –
175.2 | 179.2 | 163.1 | 163 | CN(C)c1ccc(/N=N/c2ccccc2C(=O)O)cc1 [Methyl red] | –
190.8 | – | – | 187.3 | Cc1ccc(-c2cc(C(F)(F)F)nn2-c2ccc(S(N)(=O)=O)cc2)cc1 [Celecoxib] | –
169.1 | – | – | – | CCCCCCCCOC(=O)c1ccc(O)cc1 [Octylparaben] | –
– | 220.1 | – | 212.4 | N#Cc1ccc(CC(=NNC(=O)Nc2ccc(OC(F)(F)F)cc2)c2cccc(C(F)(F)F)c2)cc1 [Metaflumizone] | –
– | 179.4 | 179.7 | 179.1 | CCCCCCCCCCCC(=O)N(CC)CC [N,N-Diethyldodecanamide] | –
– | 172.7 | 176.1 | 176.5 | CC(C)(C)NC[C@H](O)COc1nsnc1N1CCOCC1 [Timolol maleate salt] | –
– | 168.6 | – | – | CCCOC(=O)CCCCC(=O)OCCC [Dipropyl hexanedioate] | –
147.3 | – | – | 146.4 | Oc1c(I)cc(I)c2cccnc12 [Iodoquinol] | –
148.1 | – | 150 | 150.3 | Nc1ccc(N=Nc2ccccc2)c(N)n1 [Phenazopyridine hydrochloride] | –
175.2 | – | – | – | CCCCC/C=C\C/C=C\CCCCCCCC(=O)O [Linoleic acid] | –

Further lines, the compound ahead of its results:

Structure (SMILES) | collision cross section in nitrogen [2] [Å²] | collision cross section in nitrogen [3] [Å²] | collision cross section in nitrogen [4] [Å²] | collision cross section in nitrogen [5] [Å²] | further results
CCCCCCCCCCCC[N+](C)(C)CCCCCCCCCCCC [Didodecyldimethylammonium bromide] | – | – | – | – | collision cross section in nitrogen (ion source: ESI, ion mode: Positive, ion type: [M]+ (permanent cation)): 225.6 Å²
c1ccc2c(c1)[nH]c1ccccc12 [Carbazole] | 132.9 | – | – | – | collision cross section in nitrogen [1]: 130.2 Å²
CC(C)(C)c1cc(O)c(C(C)(C)C)cc1O [2,5-Di-tert-butylbenzene-1,4-diol] | – | – | – | – | collision cross section in nitrogen [1]: 155.1 Å²
CC(=O)c1sc(C)nc1C [1-(2,4-Dimethyl-1,3-thiazol-5-yl)ethanone] | – | – | 129.2 | – | –
CCNP(=S)(OC)O/C(C)=C/C(=O)OC(C)C (configuration not stated) [Propetamphos] | 168.1 | 170.5 | – | – | –
O=C1CCCCCN1SSN1CCCCCC1=O [1,1'-Disulfanediyldiazepan-2-one] | – | 168.7 | – | – | –
N=C(N)NC(=N)NCCc1ccccc1 | – | 148.3 | 145.7 | 146.3 | –
CC(C)(C)c1cc([N+](=O)[O-])cc(C(C)(C)C)c1O [2,6-Di-tert-butyl-4-nitrophenol] | 162.2 | – | – | – | –
Oc1ccnc(O)c1 [2,4-Dihydroxypyridine] | 118.5 | – | 119.5 | 120.2 | –
CCNS(=O)(=O)C(F)(F)C(F)(F)C(F)(F)C(F)(F)C(F)(F)C(F)(F)C(F)(F)C(F)(F)F [N-Ethylperfluorooctane sulfonamide] | 180.4 | – | – | – | –
Nc1ccc(Cl)c([N+](=O)[O-])c1 [4-Chloro-3-nitroaniline] | 126.1 | – | – | – | –
C1CN(CCOCCN2CCOCC2)CCO1 [4,4'-(Oxydiethylene)bis(morpholine)] | – | 156.9 | 151.8 | 152.2 | –
COC(=O)Nc1nc2ccccc2[nH]1 [Carbendazim] | – | – | 138.7 | 139 | –
N#Cc1c(-c2ccc(Cl)cc2)[nH]c(C(F)(F)F)c1Br [Tralopyril] | 157.9 | – | – | – | –
O=C(Nc1ccc(F)cc1F)c1cccnc1Oc1cccc(C(F)(F)F)c1 [Diflufenican] | 180.6 | – | 184.7 | 189.1 | –
N#Cc1ccc(C(c2ccc(C#N)cc2)n2cncn2)cc1 [4,4'-(1H-1,2,4-Triazol-1-ylmethylene)dibenzonitrile] | 166.5 | – | – | – | –
O=C(NO)C1(NS(=O)(=O)c2ccc(Oc3ccc(F)cc3)cc2)CCOCC1 | 184.6 | 206.8 | – | – | –
COP(=O)(O)OC [Dimethyl phosphate] | 120.6 | – | – | – | –

Structure (SMILES) | collision cross section in nitrogen [2] [Å²] | collision cross section in nitrogen [3] [Å²] | collision cross section in nitrogen [4] [Å²] | collision cross section in nitrogen [5] [Å²] | further results
CC(C)Oc1ccc(S(=O)(=O)c2ccc(O)cc2)cc1 [4-((4-Isopropoxyphenyl)sulfonyl)phenol] | 174.8 | 187.9 | 180.9 | 171.8 | –
CC(C)c1ccc(NC(=O)N(C)C)cc1 [Isoproturon] | 155.4 | 158.8 | 152.9 | 152.1 | –
CC(C)OC(=O)Nc1cccc(Cl)c1 [Chlorpropham] | 148.4 | – | – | – | –
CCN(CC)c1ccc2c(c1)Oc1cc(N(CC)CC)ccc1C21OC(=O)c2ccccc21 [C.I. Solvent Red 49] | – | 230.2 | 217.9 | 218.5 | –
Cc1cc(Cl)ccc1N=CN(C)C [Chlordimeform hydrochloride] | – | – | 146.2 | – | –
O=C1c2c(O)ccc(Nc3ccc(CCO)cc3)c2C(=O)c2c([N+](=O)[O-])ccc(O)c21 [C.I. Disperse Blue 27] | 201.7 | 189.9 | – | – | –
Oc1ccc2cc(SSc3ccc4cc(O)ccc4c3)ccc2c1 [6-Hydroxy-2-naphthyl disulfide] | 185.8 | – | – | – | –
Cc1ccc2c(c1)CCCN2 [6-Methyl-1,2,3,4-tetrahydroquinoline] | – | – | 134.5 | 134.8 | –
C[C@H]1O[C@H](O[C@H]2[C@H](O)[C@@H](O)[C@@H](O)[C@H](O)[C@@H]2O)[C@@H](N)C[C@@H]1NC(=N)C(=O)O [Kasugamycin hydrochloride] | 178 | – | – | 165.9 | –
CC(=O)c1ccc(N)cc1 [4-Aminoacetophenone] | 125 | – | – | – | –
OCCN(CCO)CCN(CCO)CCO [2,2',2'',2'''-(1,2-Ethanediyldinitrilo)tetrakisethanol] | – | 151.1 | 149.2 | 149.6 | –
Oc1ccc(Cl)cc1Cc1cc(Cl)ccc1O [Dichlorophen] | 155.8 | – | – | – | –
CN(C)c1ccc(N=O)cc1 [N,N-Dimethyl-4-nitrosoaniline] | – | – | 128.7 | 128.4 | –
COc1ccc([N+](=O)[O-])cc1O [Sodium 2-methoxy-5-nitrophenolate] | 129.6 | – | – | – | –
CCCCOC(=O)N(C)SN(C)C(=O)Oc1cccc2c1OC(C)(C)C2 [Furathiocarb] | – | 195 | 191.3 | 190.5 | –
N#CCC#N [Propanedinitrile] | 103.8 | – | – | – | –
O=P1(NCCCl)OCCCN1CCCl (configuration not stated) [Ifosfamide] | – | 158.1 | 148.1 | 148.8 | –
CCn1nc(C)c2c1C(=O)NCC(c1ccc(O)cc1)=N2 | 172.9 | – | 170.8 | 170.3 | –
